Reference: patent US20210198277A1, “AMINE-SUBSTITUTED ARYL OR HETEROARYL COMPOUNDS” (Epizyme, Inc., priority 2016, published 2021)

What follows are compounds tested against T1, human EHMT2 913-1193 (Homo sapiens, UniProt Q96KQ7) (assay: EHMT2 enzyme assay on histone peptide substrate (EHMT2 PEP)). Conditions: Table III; read-out: EHMT2 PEP (IC50 μM).
T1 construct: recombinant purified human EHMT2 913-1193, Viva; purchased Viva
T1 sequence (Q96KQ7 913-1193): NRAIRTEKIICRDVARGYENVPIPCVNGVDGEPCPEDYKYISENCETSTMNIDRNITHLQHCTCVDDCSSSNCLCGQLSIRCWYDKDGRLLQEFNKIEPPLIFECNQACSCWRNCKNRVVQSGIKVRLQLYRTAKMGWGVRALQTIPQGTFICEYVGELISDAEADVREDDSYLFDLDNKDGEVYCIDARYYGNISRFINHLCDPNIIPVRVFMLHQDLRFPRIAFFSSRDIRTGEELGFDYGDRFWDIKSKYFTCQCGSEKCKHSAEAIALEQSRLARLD
Type: biochemical
Summary of the method: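 Compounds (10-point, 3-fold dilutions, top 50 μM final, 2% DMSO) preincubated 30 min with 0.031 nM EHMT2 in 20 mM Bicine pH 7.5, 0.002% Tween 20, 0.005% gelatin, 1 mM TCEP. Biotinylated histone peptide methylated with ^3H-SAM 60 min at room temperature. Quenched with unlabeled SAM; product captured on streptavidin Flashplate, scintillation counted.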

First: CNc1cc(C)nc(Nc2ccc(OC)c(O[C@H]3C[C@H](N(C)C)C3)c2)n1 (single isomer, unassigned) [Compound 329, N^2-(3-((1r,3r)-3-(dimethylamino)cyclobutoxy)-4-methoxyphenyl)-N^4,6-dimethylpyrimidine-2,4-diamine]
Second: CNc1cc(C)nc(Nc2ccc(OC)c(O[C@H]3C[C@H](CN(C)C)C3)c2)n1 [Compound 331, N^2-(3-((1r,3r)-3-((dimethylamino)methyl)cyclobutoxy)-4-methoxyphenyl)-N^4,6-dimethylpyrimidine-2,4-diamine]
The IC50 of the first is lower: 1 to 10 µM for the first, > 10 µM for the second. The first is the more potent here.

COc1ccc(Nc2ccc3cnn(C)c3n2)cc1OCCCN1CCCC1 [Compound 257, N-(4-methoxy-3-(3-(pyrrolidin-1-yl)propoxy)phenyl)-1-methyl-1H-pyrazolo[3,4-b]pyridin-6-amine] and COc1ccc(Nc2ccc3cnn(C)c3c2)cc1OCCCN1CCCC1 [Compound 341] cannot be ordered by IC50: > 10 µM for the first, > 10 µM for the second.

COc1ccc(Nc2cc3c(cn2)ncn3C)cc1OCCCN1CCCC1 [Compound 258, N-(4-methoxy-3-(3-(pyrrolidin-1-yl)propoxy)phenyl)-1-methyl-1H-imidazo[4,5-c]pyridin-6-amine] and COc1ccc(Nc2ccc3ncn(C)c3n2)cc1OCCCN1CCCC1 [Compound 342] cannot be ordered by IC50: > 10 µM for the first, > 10 µM for the second.

COc1ccc(Nc2nccc(NCC3CCOCC3)n2)cc1OC1CCC2(CC1)CCN(C)C2 (stereo not drawn) [Compound 259, N^2-(4-methoxy-3-((2-methyl-2-azaspiro[4.5]decan-8-yl)oxy)phenyl)-N^4-((tetrahydro-2H-pyran-4-yl)methyl)pyrimidine-2,4-diamine] and COc1ccc(Nc2nccc(NCC3CCOCC3)n2)cc1OC1CCC2(CC1)CN(C)C2 [Compound 260, N^2-(4-methoxy-3-((2-methyl-2-azaspiro[3.5]nonan-7-yl)oxy)phenyl)-N^4-((tetrahydro-2H-pyran-4-yl)methyl)pyrimidine-2,4-diamine] cannot be ordered by IC50: > 10 µM for the first, > 10 µM for the second.

Going from CNc1cnnc(Nc2cc(OCCCN3CCCC3)c(OC)cn2)c1 [Compound 322, N^3-(5-methoxy-4-(3-(pyrrolidin-1-yl)propoxy)pyridin-2-yl)-N^5-methylpyridazine-3,5-diamine] to CNc1cc(Nc2cc(OCCCN3CCCC3)c(OC)cn2)cnn1 [Compound 323, N^5-(5-methoxy-4-(3-(pyrrolidin-1-yl)propoxy)pyridin-2-yl)-N^3-methylpyridazine-3,5-diamine], the IC50 rises from < 0.1 µM to > 10 µM. The first is the more potent here.

CNc1cc(Nc2cc(OCCCN3CCCC3)c(OC)cn2)ncn1 [Compound 324, N^4-(5-methoxy-4-(3-(pyrrolidin-1-yl)propoxy)pyridin-2-yl)-N^6-methylpyrimidine-4,6-diamine] and CNc1cc(Nc2cc(OCCCN3CCCC3)c(OC)cn2)nc(C)n1 [Compound 325, N^4-(5-methoxy-4-(3-(pyrrolidin-1-yl)propoxy)pyridin-2-yl)-N^6,2-dimethylpyrimidine-4,6-diamine] fall in the same range of IC50: 1 to 10 µM for the first, 1 to 10 µM for the second.

COc1cnc(Nc2nc(C)nc3[nH]ccc23)cc1OCCCN1CCCC1 [Compound 326, N-(5-methoxy-4-(3-(pyrrolidin-1-yl)propoxy)pyridin-2-yl)-2-methyl-7H-pyrrolo[2,3-d]pyrimidin-4-amine] and COc1cnc(Nc2cc(C)nc3[nH]ccc23)cc1OCCCN1CCCC1 [Compound 336, N-(5-methoxy-4-(3-(pyrrolidin-1-yl)propoxy)pyridin-2-yl)-6-methyl-1H-pyrrolo[2,3-b]pyridin-4-amine] fall in the same range of IC50: 0.1 to 1 µM for the first, 0.1 to 1 µM for the second.

First: CNc1nc(Nc2ccc(OC)c(OCCCN3CCCC3)c2)nc2c1CCC2 [Compound 328, N^2-(4-methoxy-3-(3-(pyrrolidin-1-yl)propoxy)phenyl)-N^4-methyl-6,7-dihydro-5H-cyclopenta[d]pyrimidine-2,4-diamine]
Second: COc1ccc(Nc2nc(C)c(F)c(NC(C)C)n2)cc1OCCCN1CCCC1 [Compound 337]
The IC50 of the first is lower: 0.1 to 1 µM for the first, 1 to 10 µM for the second. The first is the more potent here.

First: CNc1cc(C)nc(Nc2ccc(OC)c(OC[C@H]3C[C@H](N(C)C)C3)c2)n1 [Compound 330]
Second: CNc1ccnc(Nc2ccc(OC)c(OCCCN3CC(F)C3)c2)n1 [Compound 354]
The IC50 of the first is higher: > 10 µM for the first, 1 to 10 µM for the second. The second is the more potent here.

Compared with CNc1cc(C)nc(Nc2cnc(OC)c(OCCCN3CCCC3)c2)n1 [Compound 332, N^2-(6-methoxy-5-(3-(pyrrolidin-1-yl)propoxy)pyridin-3-yl)-N^4,6-dimethylpyrimidine-2,4-diamine], COc1ccc(Nc2ncc3ncn(C)c3n2)cc1OCCCN1CCCC1 [Compound 343] is higher in IC50: < 0.1 µM for the first, > 10 µM for the second. The first is the more potent here.

First: CCn1nc(Nc2nccc3[nH]ccc23)cc1COCCN1CCCC1 [Compound 333]
Second: COc1cnc(Nc2ccnc3[nH]ccc23)cc1OCCCN1CCCC1 [Compound 335, N-(5-methoxy-4-(3-(pyrrolidin-1-yl)propoxy)pyridine-2-yl)-1H-pyrrolo[2,3-b]pyridin-4-amine]
The IC50 of the first is higher: 1 to 10 µM for the first, 0.1 to 1 µM for the second. The second is the more potent here.

COc1ccc(Nc2nccc(-n3nc(C)cc3C)n2)cc1OCCCN1CCCC1 [Compound 338] and COc1ccc(Nc2nccc(-c3cnn(C)c3)n2)cc1OCCCN1CCCC1 [Compound 348] cannot be ordered by IC50: > 10 µM for the first, > 10 µM for the second.

First: CNCc1cnc(Nc2ccc(OC)c(OCCCN3CCCC3)c2)nc1 [Compound 339]
Second: COc1ccc(Nc2ccc3ncc(C)n3n2)cc1OCCCN1CCCC1 [Compound 347]
The IC50 of the first is higher: > 10 µM for the first, 1 to 10 µM for the second.

First: COc1ccc(Nc2ccnc(NCC3CCN(C(C)=O)CC3)n2)cc1OCCCN1CCCC1 [Compound 340]
Second: COc1ccc(OCCCN2CCCC2)cc1Nc1nccc(NCC2CCOCC2)n1 [Compound 351]
The IC50 of the first is lower: 0.1 to 1 µM for the first, > 10 µM for the second.

COc1ccc(Nc2cccc3ncnn23)cc1OCCCN1CCCC1 [Compound 344] and COc1ccc(Nc2cccc3cn(C)nc23)cc1OCCCN1CCCC1 [Compound 346] cannot be ordered by IC50: > 10 µM for the first, > 10 µM for the second.

First: COc1ccc(Nc2ccc3nn(C)cc3c2)cc1OCCCN1CCCC1 [Compound 345]
Second: COc1ccc(Nc2nccc(Nc3cccc(F)c3)n2)cc1OCCCN1CCCC1 [Compound 349]
The IC50 of the first is higher: > 10 µM for the first, 1 to 10 µM for the second. The second is the more potent here.

First: COc1ccc(Nc2nccc(NCC3CCOCC3)n2)cc1NCCCN1CCCC1 [Compound 350]
Second: COc1ccc(NCCCN2CCCC2)cc1Nc1nccc(NCC2CCOCC2)n1 [Compound 352]
The IC50 of the first is lower: 0.1 to 1 µM for the first, > 10 µM for the second. The first is the more potent here.

CNc1ccnc(Nc2ccc(OC)c(OCCCN3CC[C@@H](F)C3)c2)n1 [Compound 353] showed an IC50 of 0.1 to 1 µM.

Same assay, conditions: Table VI; read-out: EHMT2 PEP IC50

First: CNc1cc2nccn2c(Nc2cc(OCCCN3CCCC3)c(OC)cn2)n1 [Compound 611]
Second: COc1cnc(Nc2nn(C)c3cnccc23)cc1OCCCN1CCCC1 [Compound 795]
The IC50 of the first is lower: 1 to 10 µM for the first, > 10 µM for the second. The first is the more potent here.

First: CCN1CC(COc2cc(Nc3nc(C)cc4[nH]ccc34)ncc2OC)C1 [Compound 613]
Second: COc1cnc(Nc2nccc3nccn23)cc1OC[C@@H]1CCNC1 [Compound 801]
The IC50 of the first is lower: 0.1 to 1 µM for the first, > 10 µM for the second. The first is the more potent here.

CNc1cc(C)nc(Nc2cc(OCCCN3CCCC3)c3nc(C)cn3c2)n1 [Compound 616] and CNc1cc(C)nc(Nc2cc(OCCCN3CCCC3)c3nccn3c2)n1 [Compound 618] fall in the same range of IC50: 1 to 10 µM for the first, 1 to 10 µM for the second.

First: COc1cc2c(C3CCN(C)CC3)cc(C#N)nc2cc1OCCCN1CCCC1 [Compound 790]
Second: COc1cc2c(C3CCN(C)CC3)cc(N3CCCCC3)nc2cc1OCCCN1CCCC1 [Compound 812]
The IC50 of the first is higher: 0.1 to 1 µM for the first, < 0.1 µM for the second. The second is the more potent here.

Compared with CNc1cc(C)nc(Nc2cc(OCCCN3CCCC3)c3oncc3c2)n1 [Compound 793], CNc1cc(C(C)C)c2cc(OC)c(OCCCN3CCCC3)cc2n1 [Compound 817] is lower in IC50: > 10 µM for the first, < 0.1 µM for the second.

COc1ccc(Nc2nn(C)c3cnccc23)cc1OCCCN1CCCC1 [Compound 794] and COc1ccc(Nc2cc(C)n(C)n2)cc1OCCCN1CCCC1 [Compound 797] cannot be ordered by IC50: > 10 µM for the first, > 10 µM for the second.

Going from COc1ccc(Nc2cc(C)[nH]n2)cc1OCCCN1CCCC1 [Compound 796] to CNc1cc(C2CCCCC2)c2cc(OC)c(OCCCN3CCCC3)cc2n1 [Compound 816], the IC50 falls from > 10 µM to < 0.1 µM.

Compared with CNc1cc(C)nc(Nc2cnc(OC)c(OC[C@@H]3CCN(C4CCC4)C3)c2)n1 [Compound 798], COc1ccc(Nc2nc(C)cc(NC(C)C)n2)cc1OC[C@@H]1CCNC1 [Compound 800] is lower in IC50: 0.1 to 1 µM for the first, < 0.1 µM for the second.

Compared with CNc1cc(C2CCOCC2)c2cc(OC)c(OC[C@@H]3CCNC3)cc2n1 [Compound 802], CNc1cc(C2CCOCC2)c2cc(OC)c(OC[C@@H]3CCN(C)C3)cc2n1 [Compound 803] is higher in IC50: < 0.1 µM for the first, 0.1 to 1 µM for the second.

First: COc1cc(NC2CCOCC2)ncc1OCC1CCNC1 (stereo not drawn) [Compound 806]
Second: COc1cc(N(C)C2CCOCC2)ncc1OCC1CCNC1 (stereo not drawn) [Compound 808]
The IC50 of the first is lower: 1 to 10 µM for the first, > 10 µM for the second. The first is the more potent here.

CNc1cc(C2CCN(C(C)=O)CC2)c2cc(OC)c(OCCCN3CCCC3)cc2n1 [Compound 809] and CNc1cc(CC2CCOCC2)c2cc(OC)c(OCCCN3CCCC3)cc2n1 [Compound 823] cannot be ordered by IC50: < 0.1 µM for the first, < 0.1 µM for the second.

Compared with COc1cc2c(C)cc(N3CCCCC3)nc2cc1OCCCN1CCCC1 [Compound 810], COc1cc2c(C)nc(N3CCCCC3)nc2cc1OCCCN1CCCC1 [Compound 811] is higher in IC50: 0.1 to 1 µM for the first, > 10 µM for the second. The first is the more potent here.

CNc1cc(C)nc(Nc2ccc(OC)c(CN[C@H]3CCNC3)c2)n1 [Compound 813] and CNc1cc(C)nc(Nc2ccc(OC)c(CN[C@@H]3CCNC3)c2)c1 [Compound 814] fall in the same range of IC50: 1 to 10 µM for the first, 1 to 10 µM for the second.

Compared with COc1cc2c(C3CCOCC3)cc(=O)[nH]c2cc1OCCCN1CCCC1 [Compound 822], COc1cc2c(C3CCOCC3)cc(N3CCCCC3)nc2cc1OCCCN1CCCC1 [Compound 824] is lower in IC50: > 10 µM for the first, 0.1 to 1 µM for the second. The second is the more potent here.
